Experiments:
Rat Liver Pao = Rat Liver Pao (Rattus norvegicus, UniProt A0A8I6AEP5); assay: In vitro inhibition of partially purified rat liver polyamine oxidase (PAO); type: biochemical
Protocol: Polyamine Oxidase Inhibition^1
Rat liver polyamine oxidase was purified by the procedure of Holtta, E.
step. Ki and .tau.50 were determined using the partially

PAO = PAO activity ex vivo in the liver of mice dosed i.p. 24 hours before; settings: mouse liver, Dose 1.0 mg/kg i.p., control 18.7
Source text: MEASUREMENT OF PAO ACTIVITIES IN MOUSE TISSUES
Chim. Biophys. Acta 38: 69-76.

ODC and AdoMetDC = settings: cited from earlier work
natural polyamines = settings: exposure of cells; cited from earlier work
L1210 cells = settings: cited from earlier work
ODC = settings: cited from earlier work
T. b. brucei = settings: in mice; cited from earlier work
Eimeria spp. = settings: cited from earlier work
Pneumocystis carinii = settings: cited from earlier work
P. gallinaceum = P. gallinaceum in chickens; cited from earlier work
P. berghei = settings: cited from earlier work
Plasmodia spp. [1] = settings: in culture in vitro; cited from earlier work
Plasmodia spp. [2] = settings: liver of infected mice; cited from earlier work
Plasmodia spp. [3] = settings: cited from earlier work

Chain of Rat Liver Pao (A0A8I6AEP5 62-564): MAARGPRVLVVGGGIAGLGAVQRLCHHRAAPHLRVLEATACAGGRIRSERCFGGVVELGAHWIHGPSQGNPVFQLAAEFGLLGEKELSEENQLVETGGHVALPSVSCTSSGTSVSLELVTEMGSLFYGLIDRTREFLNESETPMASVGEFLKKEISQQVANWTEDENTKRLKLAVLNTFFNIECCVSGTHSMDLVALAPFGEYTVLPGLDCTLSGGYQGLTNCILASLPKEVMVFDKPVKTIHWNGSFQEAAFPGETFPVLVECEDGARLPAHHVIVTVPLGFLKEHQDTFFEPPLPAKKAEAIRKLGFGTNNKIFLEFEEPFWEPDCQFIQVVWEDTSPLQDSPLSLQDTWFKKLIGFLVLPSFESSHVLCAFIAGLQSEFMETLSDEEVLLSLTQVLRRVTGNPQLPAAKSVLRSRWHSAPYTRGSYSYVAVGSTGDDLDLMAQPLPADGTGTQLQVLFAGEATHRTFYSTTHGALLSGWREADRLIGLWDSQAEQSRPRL

SMILES	.tau.50 (Rat Liver Pao)	PAO Activity (PAO)	repression of ODC and AdoMetDC (ODC and AdoMetDC)	depletion of the natural polyamines (natural polyamines)	support of growth of L1210 cells (L1210 cells)	also measured
C=C=CCNCCCNCCCNCC=C=C [Compound 46]	4.0 min	1.0 p/mol/min/mg protein				
C=C=CCNCCCNCCCCCCCCNCCCNCC=C=C [Compound 51]	2.0 min	4.1 p/mol/min/mg protein				
CCNCCCCNCCCNCC [N^1,N^8 -bis(ethyl)spermidine]			mimic the action of their parent polyamines in the repression of ODC and AdoMetDC	leads to the depletion of the natural polyamines	will not support growth of L1210 cells	
CCNCCCNCCCCNCCCNCC [N^1,N^12 -bis(ethyl)spermine]			mimic the action of their parent polyamines in the repression of ODC and AdoMetDC	leads to the depletion of the natural polyamines	will not support growth of L1210 cells	
NCCC[C@](N)(C(=O)O)C(F)F [DFMO, α-difluoromethylornithine]						inhibition of ODC (ODC): inhibits ODC; cure of acute infections of T. b. brucei (T. b. brucei): totally cure acute infections; sensitivity of Eimeria spp. (Eimeria spp.): sensitive; sensitivity of Pneumocystis carinii (Pneumocystis carinii): sensitive; curative effect on erythrocytic forms of malaria in vivo (P. gallinaceum): no curative effects; curative effect on erythrocytic forms of malaria in vivo (P. berghei; P. berghei in mice): no curative effects; parasitemia in P. berghei infections (P. berghei; P. berghei infections): significantly reduce parasitemia; erythrocytic replication (schizogony) (Plasmodia spp. [1]): block erythrocytic replication (schizogony) in culture in vitro; exoerythrocytic schizogony in the liver (Plasmodia spp. [2]): inhibit the cycle in the liver of infected mice; sporogonous cycle in the mosquito vector (Plasmodia spp. [3]): completely inhibit the sporogonous cycle in the mosquito vector

Reference: patent publication US4935449A, “N-2,3-butadienyl tri- and tetraaminoalkane derivatives” (Merrell Dow Pharmaceuticals Inc., priority 1988, dated 1990)
